Here are results for 5 compounds from ChEMBL document CHEMBL3112452, “Neutral β-Lactams Inactivate High Molecular Mass Penicillin-Binding Proteins of Class B1, Including PBP2a of MRSA” (ACS Med Chem Lett, 2014).

SMILES strings stand for the structures. Values after ≈ are worked out from the molar mass of the structure shown.

Usually MIC stands for the smallest concentration in the dilution series that meets the test's criterion for growth inhibition. A lower MIC goes with a more susceptible organism.

Assay [1] is described as follows: Inhibition of Staphylococcus aureus PBP2a.
In another assay the test system is Bacillus subtilis. The assay is described as follows: Antimicrobial activity against wild type Bacillus subtilis 168 after 18 hrs by serial dilution method. The assay is classed as functional. The conditions noted are these: subsp. subtilis str. 168, 18 h.
Assay [2] in a line: Inhibition of Bacillus subtilis 168 PBP2 after 30 mins by SDS-PAGE. Set-up: species or system Bacillus subtilis subsp. subtilis str. 168.
Assay [3] in a line: Inhibition of Escherichia coli PBP1a/1b after 30 mins by SDS-PAGE.
Assay [4] is described as follows: Inhibition of Escherichia coli BL21(DE3) PBP2 after 30 mins by SDS-PAGE.
The next assay concerns Escherichia coli. The assay is described as follows: Antimicrobial activity against wild type Escherichia coli MM 294 after 18 hrs by serial dilution method. The assay is classed as functional. The conditions noted are these: MM 294, 18 h.
A short description of assay [5]: Inhibition of Bacillus subtilis 168 PBP1 after 30 mins by SDS-PAGE. Set-up: species or system Bacillus subtilis subsp. subtilis str. 168.
The nature of assay [6]: Inhibition of Escherichia coli PBP3 after 30 mins by SDS-PAGE.
The test system of assay [7] is Staphylococcus epidermidis. Put plainly: Antimicrobial activity against wild type Staphylococcus epidermidis ATCC 12228 after 18 hrs by serial dilution method. It counts as functional. The conditions noted are these: ATCC 12228, 18 h.
In assay [8] the target is T1, Penicillin-binding protein 4 (Bacillus subtilis (strain 168), UniProt P40750).
T1 sequence (P40750 whole entry): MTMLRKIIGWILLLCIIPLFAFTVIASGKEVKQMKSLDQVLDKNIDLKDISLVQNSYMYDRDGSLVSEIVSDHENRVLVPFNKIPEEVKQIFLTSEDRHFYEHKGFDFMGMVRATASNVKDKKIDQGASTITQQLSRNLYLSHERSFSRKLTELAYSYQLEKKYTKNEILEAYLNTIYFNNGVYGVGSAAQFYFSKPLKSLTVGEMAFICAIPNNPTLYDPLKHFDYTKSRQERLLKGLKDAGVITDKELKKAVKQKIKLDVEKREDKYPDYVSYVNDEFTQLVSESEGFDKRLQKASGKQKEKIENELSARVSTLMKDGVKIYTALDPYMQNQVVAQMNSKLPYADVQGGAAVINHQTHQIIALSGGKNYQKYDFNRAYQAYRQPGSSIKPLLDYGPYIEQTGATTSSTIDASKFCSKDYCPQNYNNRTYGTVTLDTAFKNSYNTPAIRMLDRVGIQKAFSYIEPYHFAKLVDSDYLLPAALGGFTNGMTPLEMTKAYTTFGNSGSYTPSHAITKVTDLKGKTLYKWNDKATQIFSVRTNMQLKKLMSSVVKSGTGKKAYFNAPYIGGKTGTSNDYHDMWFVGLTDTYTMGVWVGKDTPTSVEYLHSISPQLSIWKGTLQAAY
Put plainly: Inhibition of Bacillus subtilis 168 PBP4 after 30 mins by SDS-PAGE. Details: species or system Bacillus subtilis subsp. subtilis str. 168.

Assay [9] can be described thus: Inhibition of Escherichia coli PBP5/6 after 30 mins by SDS-PAGE.
Assay [10] addresses T2, D-alanyl-D-alanine carboxypeptidase DacA (Bacillus subtilis (strain 168), UniProt P08750).
T2 sequence (P08750 whole entry): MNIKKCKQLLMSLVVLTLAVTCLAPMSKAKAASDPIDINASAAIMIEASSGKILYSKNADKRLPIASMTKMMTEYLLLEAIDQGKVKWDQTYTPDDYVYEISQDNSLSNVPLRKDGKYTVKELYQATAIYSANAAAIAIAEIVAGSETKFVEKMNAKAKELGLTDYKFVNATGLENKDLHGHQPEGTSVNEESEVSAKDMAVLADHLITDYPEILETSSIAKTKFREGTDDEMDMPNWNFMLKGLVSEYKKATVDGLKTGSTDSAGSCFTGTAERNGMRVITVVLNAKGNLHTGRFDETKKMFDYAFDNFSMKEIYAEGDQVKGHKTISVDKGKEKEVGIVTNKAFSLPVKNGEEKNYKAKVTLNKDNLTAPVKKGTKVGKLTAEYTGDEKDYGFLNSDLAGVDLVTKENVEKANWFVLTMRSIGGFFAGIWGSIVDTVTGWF
Put plainly: Inhibition of Bacillus subtilis 168 PBP5 after 30 mins by SDS-PAGE. Details: species or system Bacillus subtilis subsp. subtilis str. 168.

The target in assay [11] is T3, Penicillin-binding protein 3 (Bacillus subtilis (strain 168), UniProt P42971).
T3 sequence (P42971 whole entry): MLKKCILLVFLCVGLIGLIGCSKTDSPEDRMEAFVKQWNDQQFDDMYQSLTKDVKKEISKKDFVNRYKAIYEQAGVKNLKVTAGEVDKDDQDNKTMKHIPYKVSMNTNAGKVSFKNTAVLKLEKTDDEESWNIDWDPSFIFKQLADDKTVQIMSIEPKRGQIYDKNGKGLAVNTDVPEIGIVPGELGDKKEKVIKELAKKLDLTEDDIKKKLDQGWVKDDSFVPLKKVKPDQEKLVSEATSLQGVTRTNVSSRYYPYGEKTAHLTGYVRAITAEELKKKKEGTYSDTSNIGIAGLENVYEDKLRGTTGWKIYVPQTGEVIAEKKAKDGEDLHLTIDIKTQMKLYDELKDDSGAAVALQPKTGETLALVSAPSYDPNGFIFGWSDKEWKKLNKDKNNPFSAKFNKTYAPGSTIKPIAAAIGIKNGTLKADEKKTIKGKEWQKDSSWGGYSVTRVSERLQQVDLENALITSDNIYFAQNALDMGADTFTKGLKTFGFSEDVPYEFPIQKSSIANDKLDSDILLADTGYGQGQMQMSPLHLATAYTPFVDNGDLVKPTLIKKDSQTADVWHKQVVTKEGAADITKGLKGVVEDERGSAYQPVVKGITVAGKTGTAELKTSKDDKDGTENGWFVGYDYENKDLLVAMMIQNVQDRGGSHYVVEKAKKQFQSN
The assay is described as follows: Inhibition of Bacillus subtilis 168 PBP3 after 30 mins by SDS-PAGE. Details: species or system Bacillus subtilis subsp. subtilis str. 168.

Assay [12] can be described thus: Inhibition of Escherichia coli PBP4 after 30 mins by SDS-PAGE.
The next assay deals with Bacillus licheniformis. Put plainly: Antimicrobial activity against Bacillus licheniformis NRS 1264 after 18 hrs by serial dilution method. The assay is classed as functional. The conditions noted are these: NRS 1264, 18 h.

As for `CC1=CN2C(=O)[C@@H](NC(=O)[C@H](N)c3ccccc3)[C@H]2SC1`, in assay [1], the “Second-order inactivation rate constant (kinact/Ki)” value stood at 0.34 M⁻¹ s⁻¹.
Same read-out and setting: next, `CC(=O)OCC1=C(C(N)=O)N2C(=O)[C@@H](NC(=O)Cc3cccs3)[C@H]2SC1`: 1.3 M⁻¹ s⁻¹.
As to `COC(=O)[C@@H]1N2C(=O)[C@@H](NC(=O)COc3ccccc3)[C@H]2SC1(C)C`, the “Second-order inactivation rate constant (kinact/Ki)” value in assay [1] was found to be 1.5 M⁻¹ s⁻¹. The minimum inhibitory concentration (MIC) against Bacillus subtilis was found to be 25 µM (≈ 9.11 µg/mL).
As for `CC1(C)S[C@@H]2[C@H](NC(=O)COc3ccccc3)C(=O)N2[C@H]1C(N)=O`, in assay [1], the “Second-order inactivation rate constant (kinact/Ki)” value was 2 M⁻¹ s⁻¹. The Ki in [2] came to 440 M⁻¹ s⁻¹; in [3] it was 0.74 M⁻¹ s⁻¹; in assay [4], 1.5 M⁻¹ s⁻¹; in assay [5], 340 M⁻¹ s⁻¹; in assay [6], 18 M⁻¹ s⁻¹; in assay [8], 190 M⁻¹ s⁻¹. The Ki stood at 0.6 M⁻¹ s⁻¹ in assay [9], 17 M⁻¹ s⁻¹ in [10], 5.3 M⁻¹ s⁻¹ in [11] and 30 M⁻¹ s⁻¹ in assay [12]. Besides, the MIC against Escherichia coli came to 10000 µM (≈ 3490 µg/mL); in the assay on Bacillus subtilis, 2.3 µM (≈ 0.804 µg/mL); in [7], 95 µM (≈ 33.2 µg/mL); with Bacillus licheniformis, 1.5 µM (≈ 0.524 µg/mL).
Regarding `CC1(C)S[C@@H]2[C@H](NC(=O)COc3ccccc3)C(=O)N2[C@H]1C(=O)O` [PENICILLIN V], the kinact/Ki in assay [2] was 19000 M⁻¹ s⁻¹; in assay [5], 110000 M⁻¹ s⁻¹. Also, the Ki was 184 M⁻¹ s⁻¹ in assay [3]; 128 M⁻¹ s⁻¹ in assay [4]; 420 M⁻¹ s⁻¹ in assay [6]; 96 M⁻¹ s⁻¹ in assay [9]; 620 M⁻¹ s⁻¹ in assay [10]; 28 M⁻¹ s⁻¹ in assay [11]. For the same compound, the Ki in [12] worked out at 3200 M⁻¹ s⁻¹. For the same compound, the MIC was determined as 750 µM (≈ 263 µg/mL) with Escherichia coli, 1400 µM (≈ 491 µg/mL) against Bacillus subtilis, 370 µM (≈ 130 µg/mL) in assay [7] and 1500 µM (≈ 526 µg/mL) with Bacillus licheniformis.
